Measured values reported in paper PMC9959130, “Effects of Side Chain and Peptide Bond Modifications on the Targeting Properties of Stabilized Minigastrin Analogs” (Pharmaceuticals, 2023).
Where a SMILES comes first, the peptide text is derived from it. [ ]: non-standard residue; d: D form. The star is where a group is joined. DOTA = O=C(O)CN1CCN(CC(=O)O)CCN(CC(=O)*)CCN(CC(=O)O)CC1; 1Nal = N[C@@H](Cc1cccc2ccccc12)C(=O)O; NMeNle = CCCC[C@H](NC)C(=O)O

Tests used:
[1] = system: A431-CCK2R and A431-mock xenografts; assay: Biodistribution in BALB/c nude mice bearing A431-CCK2R/A431-mock xenografts; assay type: in vivo; conditions: xenografted BALB/c nude mice, i.v., ~20 pmol, 4 h p.i. (indium-111 or lutetium-177), mean ± SD n = 4
Procedure, shortened: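 Female athymic BALB/c nude mice carrying subcutaneous A431-CCK2R and A431-mock tumors (~0.25 g) received ~20 pmol radiopeptide i.v. (150–200 kBq; ~0.5 MBq for gallium-68/lutetium-177 studies), n = 4. Tissues γ-counted at 1 h (gallium-68) or 4 h p.i. (indium-111/lutetium-177); expressed as % IA/g and tumor-to-organ ratios.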

[2] = Metabolic studies in BALB/c mice (intact radiopeptide by radio-HPLC); assay type: in vivo; conditions: i.v., 2 nmol, 10 min p.i., two animals per peptide
Protocol: All animal experiments were approved by the Austrian Ministry of Science (BMWF-66.011/0075- WF/V/3b/2016) and performed in accordance with the Austrian Animal Protection Act. Metabolic studies characterizing the stability of selected radioligands against enzymatic degradation were carried out in 7 to 8 week old female BALB/c mice (Charles River, Sulzfeld, Germany). The mice (two animals for each peptide) were intravenously injected into a lateral tail vein with 5–10 MBq of the ^111In-labeled peptide derivatives, corresponding to 2 nmol total peptide. At the time point of 10 min p.i. the animals were euthanatized by cervical dislocation. A sample of urine and blood was immediately collected. Liver and kidneys were dissected, mixed with 20 mM HEPES buffer pH 7.3 (1:1, w/v) and homogenized using an Ultra-Turrax T8 homogenizer (IKA-Werke, Staufen, Germany) for 1 min. All samples taken were analyzed by analytical HPLC using the low-sensitivity loop for urine and the high-sensitivity loop for blood, liver and kidney. Before injection into the HPLC system, all samples except urine were treated with ACN and diluted with water as described for stability studies in human serum. The percentage of intact radiopeptide in the analyzed samples was calculated by integration of the different peaks found in the radiochromatogram using Chromeleon Dionex Software (Version 7.2.9.11323).

Uptake in kidneys [1]: 20.67 ± 4.37 %IA/g
Intact radiopeptide in kidney ([2]; kidney homogenate): 20.6 ± 3.8%
Intact radiopeptide in liver ([2]; liver homogenate): 82.5 ± 2.4%
Intact radiopeptide in blood [2]: 93.9 ± 1.2%
Intact radiopeptide in urine [2]: 5.8 ± 0.2%
SMILES: CCCC[C@@H](C(=O)N[C@@H](CC(=O)O)C(=O)N[C@@H](Cc1cccc2ccccc12)C(N)=O)N(C)C(=O)[C@H](Cc1c[nH]c2ccccc12)NC(=O)CNC(=O)[C@H](Cc1ccc(O)cc1)NC(=O)[C@H](C)NC(=O)[C@@H](CCCCN)NC(=O)CN1CCN(CC(=O)O)CCN(CC(=O)O)CCN(CC(=O)O)CC1 [[^111In]In-DOTA-[DLys^1]MGS5] [metal not drawn] ({DOTA}-[dK]AYGW[NMeNle]D[1Nal]-NH2)
